From US5807860A, “Urea derivatives” (Mitsubishi Chemical Corporation, priority 1995, dated 1998) come the findings set out here.

A short description of series [1]: Moisture absorption under ambient atmosphere (Karl Fisher method). It is filed as physicochemical. Particulars: kept under ambient atmosphere for 2 days. The source says: Among these compounds, compounds having higher hygroscopic properties may absorb moisture when kept under ambient atmosphere to form substances represented by the following formula: [drawing 15] wherein R1, R2, R3, R4, R5, R6, k, l, and Y are the same as those defined above; symbol "a" represents 0 or an arbitrary integer or represents an arbitrary fraction; and symbol "b" represents an arbitrary integer or an arbitrary fraction. For example, 3.3% weight increase was observed by Karl Fisher method after N-{5-(1-imidazolyl)-2-methoxyphenyl}methyl-N-(1-pentyl)-N'-[2-{3-(4-phenyl-1-piperazinyl)propoxy}-6-methylphenyl]urea dihydrochloride obtained in Example 3 was kept under ambient atmosphere for 2 days.

Another series has as its target T1, ACAT of HepG2 cells (Homo sapiens, UniProt P35610).
T1 construct: endogenous in cells; host or cells: HepG2
T1 sequence (P35610 1-550): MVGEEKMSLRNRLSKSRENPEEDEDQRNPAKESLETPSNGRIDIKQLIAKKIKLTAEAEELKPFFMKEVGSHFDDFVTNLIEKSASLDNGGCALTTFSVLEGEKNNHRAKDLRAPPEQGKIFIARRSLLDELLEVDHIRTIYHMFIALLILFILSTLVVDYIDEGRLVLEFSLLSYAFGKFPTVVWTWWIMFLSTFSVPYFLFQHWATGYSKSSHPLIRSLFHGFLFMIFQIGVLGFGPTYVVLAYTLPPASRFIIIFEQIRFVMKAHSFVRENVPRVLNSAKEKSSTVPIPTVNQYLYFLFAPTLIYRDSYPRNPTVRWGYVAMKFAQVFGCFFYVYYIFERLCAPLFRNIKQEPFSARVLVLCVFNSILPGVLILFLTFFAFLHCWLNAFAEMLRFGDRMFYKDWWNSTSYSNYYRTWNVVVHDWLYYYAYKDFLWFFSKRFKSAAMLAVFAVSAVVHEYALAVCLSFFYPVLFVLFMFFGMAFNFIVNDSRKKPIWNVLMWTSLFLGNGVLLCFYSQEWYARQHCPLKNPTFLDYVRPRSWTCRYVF
As to the kind of experiment: Inhibitory activity against ACAT of HepG2 cells derived from human liver cancer cells. It is filed as cell-based. The following applies: radio-labelled oleic acid/BSA complex, cholesterol oleate produced. How it is done: Inhibitory Activity against ACAT of HepG2 cells Derived from Human Liver Cancer Cells Inhibitory activities of the compounds of the present invention against ACAT were measured by the method described below. HepG2 cells derived from human liver cancer cells were used for the measurement of the ACAT activity. A complex of radio-labelled oleic acid and bovine serum albumin was added to a culture of the cells, and the activity was measured by observing the amount of radio-labelled cholesterol oleate produced from the radio-labelled oleic acid in the cells.

Series [2] concerns high cholesterol fed WISTAR male rats (total cholesterol in the serum). As to the kind of experiment: Cholesterol reduction activity in high cholesterol fed rats. It is filed as in vivo, rat (WISTAR). Particulars: Rattus norvegicus, once a day for 5 days, 3.5 hours after final administration, probit analysis. How it is done: Cholesterol Reduction Activity in High Cholesterol Fed Rats
6-Week old WISTAR male rats were fed with high cholesterol solid feedstuff (Oriental Kobo Co., Ltd., 1% cholesterol, 0.5% cholic acid). Each group consisted of seven rats was compulsorily administered with 0.2% aqueous solution of a test compound (compound of Example 3) once a day at a dose of 1 mg/kg, 3 mg/kg, 10 mg/kg, or 30 mg/kg for 5 days. One group consisted of seven rats was fed with the same high cholesterol feedstuff and used as a control group. After 3.5 hours from the final administration, blood was collected from the abdominal aorta and the total cholesterol in the serum was measured. The reduction rate of total cholesterol was represented as a ratio between a control group not administered with the drug (seven rats) and examined by the probit analysis.

Series [3] deals with T2, ACAT in foamed macrophages (Mus musculus, UniProt Q61263).
T2 construct: endogenous in cells; host or cells: peritoneal macrophages of ddY female mice, foamed with acetylated LDL
T2 sequence (Q61263 1-540): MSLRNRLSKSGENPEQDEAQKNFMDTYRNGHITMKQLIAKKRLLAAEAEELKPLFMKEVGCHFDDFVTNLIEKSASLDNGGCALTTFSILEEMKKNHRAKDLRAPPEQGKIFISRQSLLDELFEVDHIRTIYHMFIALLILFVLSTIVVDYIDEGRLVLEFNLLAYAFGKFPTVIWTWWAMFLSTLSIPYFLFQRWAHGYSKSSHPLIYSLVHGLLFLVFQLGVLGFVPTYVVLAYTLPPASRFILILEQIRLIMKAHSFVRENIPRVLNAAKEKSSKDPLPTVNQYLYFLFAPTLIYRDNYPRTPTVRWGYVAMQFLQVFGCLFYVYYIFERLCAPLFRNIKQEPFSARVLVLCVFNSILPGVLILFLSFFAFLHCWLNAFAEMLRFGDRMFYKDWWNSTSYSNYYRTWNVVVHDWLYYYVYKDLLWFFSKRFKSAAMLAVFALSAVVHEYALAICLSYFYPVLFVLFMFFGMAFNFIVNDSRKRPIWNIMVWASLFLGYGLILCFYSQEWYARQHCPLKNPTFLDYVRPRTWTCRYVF
As to the kind of experiment: Inhibitory activity against ACAT derived from foamed macrophages. The class given is cell-based, mouse (ddY female mice). Particulars: foamed macrophages from ddY female mice; acetylated LDL, 24 hours; cholesterol oleate produced; read-out: Inhibitory activity against ACAT, Macrophage (IC50). The procedure:
Inhibitory Activity against ACAT Derived from Foamed Macrophages
Inhibitory activity of the compounds of the present invention against ACAT in foamed macrophages was measured by the methods set out below. Acetylated low density lipoprotein was added to macrophages taken from abdominal cavities of ddY female mice and the cells were incubated for 24 hours to obtain foaming macrophages. These cells accumulated a large amount of cholesterol (ester) inside the cells, and are used as a model of arteriosclerosis lesion. ACAT activity of the cells was determined by adding a complex of radio-labelled oleic acid and bovine serum albumin to the cell culture, and observing the amount of radio-labelled cholesterol oleate that was produced from the radio-labelled oleic acid in the cells. The inhibitory activities of the compounds of the present invention against ACAT were measured as follows: percent reduction rates of enzymatic activity by the addition of given concentrations of test compounds was observed on the basis of the amount of the produced cholesterol oleate in the control group without the addition of a test compound, and by using the results, IC50, i.e., concentrations of tested compounds required to inhibit 50% of the enzyme activity, was calculated.

Take `CCCCCN(Cc1cc(-n2ccnc2)ccc1OC)C(=O)Nc1c(C)cccc1OCCCN1CCN(c2ccccc2)CC1.Cl.Cl` [Example 3, N-{5-(1-imidazolyl)-2-methoxyphenyl}methyl-N-(1-pentyl)-N'-[2-{3-(4-phenyl-1-piperazinyl)propoxy}-6-methylphenyl]urea dihydrochloride]: the “weight increase (moisture absorption)” value in series [1] was determined as 3.3%. On ACAT of HepG2 cells, this molecule displayed an IC50 of 108 nM. The ED10 in series [2] (10% reduction of serum total cholesterol vs control, read-out: Dose of test compound for total cholesterol reduction rate 10%) was 1.9 mg/kg. Moreover, the ED20 in series [2] (20% reduction of serum total cholesterol vs control, read-out: Dose of test compound for total cholesterol reduction rate 20%) worked out at 3.6 mg/kg. In addition, in series [2] (25% reduction of serum total cholesterol vs control, read-out: Dose of test compound for total cholesterol reduction rate 25%), the ED25 was 4.6 mg/kg. Also, in series [2] (30% reduction of serum total cholesterol vs control, read-out: Dose of test compound for total cholesterol reduction rate 30%), the ED30 is 5.7 mg/kg. Also, in series [2] (50% reduction of serum total cholesterol vs control, read-out: Dose of test compound for total cholesterol reduction rate 50%), the ED50 came to 12.1 mg/kg.
Take `CCCCCN(Cc1ccc(OC)c(-n2ccnc2)c1)C(=O)Nc1c(C)cccc1OCCCN1CCN(c2ccccc2)CC1` [Example 58]: the values for the IC50 (in series [3]; at ACAT of HepG2 cells) were 1050 nM and 584 nM, respectively.

By IC50 is commonly meant the concentration needed to halve the response being measured.
